Reference: US11780826B2 (Amgen Inc., priority 2017, dated 2023)

What follows are molecules tested on Bovine cardiac myofibrils (assay: In vitro model of dose-dependent myofibril ATPase modulation (AC1.4, pyruvate kinase/lactate dehydrogenase-coupled ATPase assay at pCa25)). Conditions: concentration at which ATPase activity was 1.4-fold higher than the bottom of the dose curve, mean of a minimum of two independent tests.
Type: biochemical
Method in brief: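 Bovine cardiac myofibrils, detergent-treated; 0.25-1.0 mg/ml. Buffer: K-PIPES 12 mM, MgCl2 2 mM, DTT 1 mM, BSA 0.1 mg/ml, pH 6.80, 22° C; Ca2+ set by EGTA/CaCl2. ATP 1 mM, NADH/PEP-coupled, A340. 4-parameter fit; n≥2.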

Structure (SMILES) | AC1.4
Cc1ccc(CNC(=O)[C@H]2CCCN2C(=O)c2cccc(S(=O)(=O)N3CC(C#N)C3)c2)cc1 [Example 106, 1-((3-((3-cyano-1-azetidinyl)sulfonyl)phenyl)carbonyl)-N-(4-methylbenzyl)-D-prolinamide] | 0.164 µM
N#CC1CN(S(=O)(=O)N2CCC[C@H](C(=O)N3CCC[C@@H]3C(=O)N[C@H](c3ccc(C(F)(F)F)cc3)C3CC3)C2)C1 [Example 107, 1-(((3S)-1-((3-cyano-1-azetidinyl)sulfonyl)-3-piperidinyl)carbonyl)-N-((S)-cyclopropyl(4-(trifluoromethyl)phenyl)methyl)-D-prolinamide] | 0.1642 µM
CCNc1ccc(C)cc1C(=O)N1CCC[C@@H]1C(=O)N[C@@H](c1ccc(C(F)(F)F)cc1F)C1CC1 [Example 108, N-((R)-cyclopropyl(2-fluoro-4-(trifluoromethyl)phenyl)methyl)-1-(2-(ethylamino)-5-methylbenzoyl)-D-prolinamide] | 0.1689 µM
N#CC1CN(S(=O)(=O)N2CCC[C@H](C(=O)N3CCOC[C@@H]3C(=O)NCc3ccc(C(F)(F)F)cc3)C2)C1 [Example 109, (3R)-4-(((3S)-1-((3-cyano-1-azetidinyl)sulfonyl)-3-piperidinyl)carbonyl)-N-(4-(trifluoromethyl)benzyl)-3-morpholinecarboxamide] | 0.1712 µM
CCNc1ccc(C)cc1C(=O)N1C[C@@H](O)C[C@@H]1C(=O)N[C@@H](c1cc(F)c(Cl)cc1F)C1COC1 [Example 110, (4S)-N-((R)-(4-chloro-2,5-difluorophenyl)(3-oxetanyl)methyl)-1-(2-(ethylamino)-5-methylbenzoyl)-4-hydroxy-D-prolinamide] | 0.1732 µM
O=C(N[C@@H](c1cc(F)c(Cl)cc1F)C1CC1)[C@H]1C[C@H]2C[C@H]2N1C(=O)c1cccc(S(=O)(=O)CCO)c1 [Example 112, (1R,3R,5R)-N-((R)-(4-chloro-2,5-difluorophenyl)(cyclopropyl)methyl)-2-(3-((2-hydroxyethyl)sulfonyl)benzoyl)-2-azabicyclo[3.1.0]hexane-3-carboxamide] | 0.1762 µM
CN(C)S(=O)(=O)c1cccc(C(=O)N2CCC[C@@H]2C(=O)N[C@@H](c2ccc(Cl)c(F)c2)C2CC2)c1 [Example 114, N-((R)-(4-chloro-3-fluorophenyl)(cyclopropyl)methyl)-1-(3-(dimethylsulfamoyl)benzoyl)-D-prolinamide] | 0.1771 µM
O=C(N[C@@H](c1cc(F)c(C(F)(F)F)cc1F)C1CC1)[C@H]1C[C@H]2C[C@H]2N1C(=O)c1cccc(C(F)(F)F)c1 [Example 115, (1R,3R,5R)-N-((R)-cyclopropyl(2,5-difluoro-4-(trifluoromethyl)phenyl)methyl)-2-(3-(trifluoromethyl)benzoyl)-2-azabicyclo[3.1.0]hexane-3-carboxamide] | 0.1774 µM
N#CC1CN(S(=O)(=O)N2CCO[C@H](C(=O)N3CCC[C@@H]3C(=O)NCc3ccc(C(F)(F)F)cc3F)C2)C1 [Example 116] | 0.179 µM
N#CC1CN(S(=O)(=O)N2CCC[C@H](C(=O)N3CCC[C@@H]3C(=O)N[C@@H](c3ccc(S(F)(F)(F)(F)F)cc3)C3CC3)C2)C1 [Example 117, 1-(((3S)-1-((3-cyano-1-azetidinyl)sulfonyl)-3-piperidinyl)carbonyl)-N-((R)-cyclopropyl(4-(pentafluoro-lambda~6~-sulfanyl)phenyl)methyl)-D-prolinamide] | 0.179 µM
CS(=O)(=O)c1ccc(NCCO)c(C(=O)N2[C@@H](C(=O)N[C@@H](c3ccc(C(F)(F)F)cc3F)C3CC3)C[C@H]3C[C@H]32)c1 [Example 118, (1R,3R,5R)-N-((R)-cyclopropyl(2-fluoro-4-(trifluoromethyl)phenyl)methyl)-2-(2-((2-hydroxyethyl)amino)-5-(methylsulfonyl)benzoyl)-2-azabicyclo[3.1.0]hexane-3-carboxamide] | 0.1795 µM
Cc1cc(Cl)ccc1CNC(=O)[C@H]1CCCN1C(=O)[C@H]1CCCN(S(=O)(=O)N2CC(C#N)C2)C1 [Example 119, N-(4-chloro-2-methylbenzyl)-1-(((3S)-1-((3-cyano-1-azetidinyl)sulfonyl)-3-piperidinyl)carbonyl)-D-prolinamide] | 0.1819 µM
C[C@@H](NC(=O)[C@H]1CCCN1C(=O)c1cccc(S(=O)(=O)N2CC(C#N)C2)c1)c1ccc(C(F)F)cc1 [Example 120, 1-((3-((3-cyano-1-azetidinyl)sulfonyl)phenyl)carbonyl)-N-((1R)-1-(4-(difluoromethyl)phenyl)ethyl)-D-prolinamide] | 0.1826 µM
C[C@H](C(=O)N[C@H](C)c1ccc(C(F)(F)F)cc1)N(C)C(=O)c1cccc(S(=O)(=O)N2CC(C#N)C2)c1 [Example 121, 3-((3-cyano-1-azetidinyl)sulfonyl)-N-methyl-N-((1R)-1-methyl-2-oxo-2-(((1R)-1-(4-(trifluoromethyl)phenyl)ethyl)amino)ethyl)benzamide] | 0.1828 µM
N#CC1CN(S(=O)(=O)c2cccc(C(=O)N3C[C@H](F)C[C@@H]3C(=O)NCc3ccc(C(F)(F)F)cc3)c2)C1 [Example 122, (4R)-1-((3-((3-cyano-1-azetidinyl)sulfonyl)phenyl)carbonyl)-4-fluoro-N-(4-(trifluoromethyl)benzyl)-D-prolinamide] | 0.1858 µM
N#CC1CN(S(=O)(=O)n2cc(C(=O)N3CCC[C@@H]3C(=O)NCc3ccc(C(F)(F)F)cc3)cn2)C1 [Example 123, 1-((1-((3-cyano-1-azetidinyl)sulfonyl)-1H-pyrazol-4-yl)carbonyl)-N-(4-(trifluoromethyl)benzyl)-D-prolinamide] | 0.189 µM
CC[C@@H](NC(=O)[C@H]1CCCN1C(=O)c1cccc(S(=O)(=O)N2CC(C#N)C2)c1)c1cc(F)cc(F)c1 [Example 124, 1-(3-((3-cyano-1-azetidinyl)sulfonyl)benzoyl)-N-((1R)-1-(3,5-difluorophenyl)propyl)-D-prolinamide] | 0.1998 µM
CS(=O)(=O)c1ccc(C(=O)N2CCCC[C@@H]2C(=O)N[C@@H](c2cc(F)c(Cl)cc2F)C2CC2)cn1 [Example 125, (2R)-N-((R)-(4-chloro-2,5-difluorophenyl)(cyclopropyl)methyl)-1-((6-(methylsulfonyl)-3-pyridinyl)carbonyl)-2-piperidinecarboxamide] | 0.2026 µM
N#CC1CN(S(=O)(=O)c2cccc(C(=O)N3C[C@H](O)C[C@@H]3C(=O)NCc3ccc(C(F)(F)F)cc3)c2)C1 [Example 126, (4R)-1-((3-((3-cyano-1-azetidinyl)sulfonyl)phenyl)carbonyl)-4-hydroxy-N-(4-(trifluoromethyl)benzyl)-D-prolinamide] | 0.2062 µM
O=C(N[C@@H](c1cc(F)c(Cl)cc1F)C1CC1)[C@H]1C[C@H]2C[C@H]2N1C(=O)c1cccc(C(F)(F)F)c1 [Example 127, (1R,3R,5R)-N-((R)-(4-chloro-2,5-difluorophenyl)(cyclopropyl)methyl)-2-(3-(trifluoromethyl)benzoyl)-2-azabicyclo[3.1.0]hexane-3-carboxamide] | 0.2088 µM
CCS(=O)(=O)c1cccc(C(=O)N2[C@@H](C(=O)N[C@@H](c3ccc(C(F)(F)F)cc3F)C3COC3)C[C@H]3C[C@H]32)c1 [Example 128, (1R,3R,5R)-2-(3-(ethylsulfonyl)benzoyl)-N-((R)-(2-fluoro-4-(trifluoromethyl)phenyl)(3-oxetanyl)methyl)-2-azabicyclo[3.1.0]hexane-3-carboxamide] | 0.2103 µM
CS(=O)(=O)c1cccc(C(=O)N2CSC[C@@H]2C(=O)N[C@@H](c2ccc(C(F)(F)F)cc2F)C2CC2)c1 [Example 129, (4S)-N-((R)-cyclopropyl(2-fluoro-4-(trifluoromethyl)phenyl)methyl)-3-(3-(methylsulfonyl)benzoyl)-1,3-thiazolidine-4-carboxamide] | 0.2119 µM
Cc1ccc(CNC(=O)[C@H]2CCCN2C(=O)[C@H]2CCCN(S(=O)(=O)N3CC(C#N)C3)C2)cc1Cl [Example 130, N-(3-chloro-4-methylbenzyl)-1-(((3S)-1-((3-cyano-1-azetidinyl)sulfonyl)-3-piperidinyl)carbonyl)-D-prolinamide] | 0.214 µM
N#CC1CN(S(=O)(=O)c2cccc(C(=O)N3CCC[C@@H]3C(=O)NCc3ccc(C(F)(F)F)nc3)c2)C1 [Example 131, 1-((3-((3-cyano-1-azetidinyl)sulfonyl)phenyl)carbonyl)-N-((6-(trifluoromethyl)-3-pyridinyl)methyl)-D-prolinamide] | 0.2158 µM
N#CC1CN(S(=O)(=O)N2CCC[C@H](C(=O)N3CCC[C@@H]3C(=O)NC(c3ccc(Cl)cc3)C3CCCO3)C2)C1 (stereo partly drawn) [Example 132, N-(-(4-chlorophenyl)(-tetrahydro-2-furanyl)methyl)-1-(((3S)-1-((3-cyano-1-azetidinyl)sulfonyl)-3-piperidinyl)carbonyl)-D-prolinamide] | 0.2176 µM
CCS(=O)(=O)c1ccnc(C(=O)N2[C@@H](C(=O)N[C@@H](c3cc(F)c(Cl)cc3F)C3CC3)C[C@H]3C[C@H]32)c1 [Example 133, (1R,3R,5R)-N-((R)-(4-chloro-2,5-difluorophenyl)(cyclopropyl)methyl)-2-((4-(ethylsulfonyl)-2-pyridinyl)carbonyl)-2-azabicyclo[3.1.0]hexane-3-carboxamide] | 0.2186 µM
N#CC1CN(S(=O)(=O)N2CCC[C@H](C(=O)N3CCC[C@@H]3C(=O)NC(CO)c3ccc(C(F)(F)F)cc3)C2)C1 (stereo partly drawn) [Example 134, 1-(((3S)-1-((3-cyano-1-azetidinyl)sulfonyl)-piperidinyl)carbonyl)-N-(-2-hydroxy-1-(4-(trifluoromethyl)phenyl)ethyl)-D-prolinamide] | 0.2198 µM
N#CC1CN(S(=O)(=O)c2cccc(C(=O)N3CCC[C@@H]3C(=O)NCc3cnc(C(F)(F)F)nc3)c2)C1 [Example 136, 1-((3-((3-cyano-1-azetidinyl)sulfonyl)phenyl)carbonyl)-N-((2-(trifluoromethyl)-5-pyrimidinyl)methyl)-D-prolinamide] | 0.2235 µM
